Experiments:
Experiment in all cases: relative viability (nuclei count vs DMSO), 5 days (fraction); higher = more cells survive
[1] = compound: C1=CC=C2C(=C1)C=CC(=C2SSC3=C(C=CC4=CC=CC=C43)O)O [IPA-3] + Nc1ncn([C@H]2C[C@H](O)[C@@H](CO)O2)c(=O)n1 [Decitabine] (partner 2 µM)
In short: (§1)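 The day after seeding in 1536-well plates, lung cancer cell lines were treated by pin tool with a single drug, or with a fixed anchor-drug dose together with five library-drug doses (not always all listed) in √10 steps. After 5 days, a combined fix-and-stain solution (final 0.05% Triton X-100, 1% formaldehyde, 1 ug/ml Hoechst) was added. Nuclei counted on 4× images gave relative viability as treated counts over vehicle counts, reported as the median of duplicate plates.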

[2] = compound: Cc1ccc(-n2nc(C(C)(C)C)cc2NC(=O)Nc2ccc(OCCN3CCOCC3)c3ccccc23)cc1 [Doramapimod] + O=C(c1cc(Cc2n[nH]c(=O)c3ccccc23)ccc1F)N1CCN(C(=O)C2CC2)CC1 [Olaparib] (partner 8 µM)
In short: as §1

[3] = compound: Cn1c(Nc2ccc(C(F)(F)F)cc2)nc2cc(Oc3ccnc(-c4ncc(C(F)(F)F)[nH]4)c3)ccc21 [RAF265] + C[C@@H](Oc1cc(-c2cnn(C3CCNCC3)c2)cnc1N)c1c(Cl)ccc(F)c1Cl [Crizotinib] (partner 1 µM)
In short: as §1

[4] = compound: Cn1c(Nc2ccc(C(F)(F)F)cc2)nc2cc(Oc3ccnc(-c4ncc(C(F)(F)F)[nH]4)c3)ccc21 [RAF265] + C[C@]1(O)C[C@@H](c2nc(-c3ccc4ccc(-c5ccccc5)nc4c3)c3c(N)nccn32)C1 [Linsitinib] (partner 1 µM)
In short: as §1

Row | Cell Line | relative viability ([1]; first compound 0.2 µM) | relative viability ([1]; first compound 0.6325 µM) | relative viability ([1]; first compound 2 µM) | relative viability ([1]; first compound 6.325 µM) | relative viability ([1]; first compound 20 µM) | relative viability ([2]; first compound 0.02 µM) | relative viability ([2]; first compound 0.06325 µM) | relative viability ([2]; first compound 0.2 µM) | relative viability ([2]; first compound 0.6325 µM) | relative viability ([2]; first compound 2 µM) | relative viability ([3]; first compound 0.01 µM) | relative viability ([3]; first compound 0.03162 µM) | relative viability ([3]; first compound 0.1 µM) | relative viability ([3]; first compound 0.3162 µM) | relative viability ([3]; first compound 1 µM) | relative viability ([4]; first compound 0.01 µM) | relative viability ([4]; first compound 0.03162 µM) | relative viability ([4]; first compound 0.1 µM) | relative viability ([4]; first compound 0.3162 µM) | relative viability ([4]; first compound 1 µM)
1 | NCI-H2126 | 0.556 | 0.624 | 0.595 | 0.587 | 0.622 | 0.768 | 0.925 | 0.989 | 0.962 | 0.94 | 1.02 | 1.04 | 1.03 | 0.96 | 0.754 | 0.712 | 0.691 | 0.743 | 0.574 | 0.49
2 | NCI-H2347 | 0.629 | 0.611 | 0.657 | 0.622 | 0.603 | 0.618 | 0.641 | 0.546 | 0.575 | 0.53 | 0.699 | 0.664 | 0.504 | 0.551 | 0.287 | 1.2 | 0.923 | 0.924 | 0.744 | 0.544
3 | NCI-H2405 | 0.797 | 0.737 | 0.723 | 0.721 | 0.746 | 0.912 | 0.828 | 0.765 | 0.816 | 0.836 | 0.846 | 0.803 | 0.872 | 0.756 | 0.566 | 0.993 | 0.884 | 1.03 | 0.852 | 0.378
4 | NCI-H3122 | 0.517 | 0.467 | 0.362 | 0.459 | 0.474 | 0.694 | 0.62 | 0.721 | 0.599 | 0.599 | 0.305 | 0.287 | 0.305 | 0.251 | 0.283 | 1.02 | 1.2 | 0.947 | 1.02 | 0.841
5 | PC-3 [JPC-3] | 0.849 | 0.837 | 0.813 | 0.779 | 0.855 | 1.3 | 1.16 | 1.22 | 1.33 | 1.14 | 0.989 | 0.986 | 1.06 | 0.417 | 0.63 | 1.03 | 0.911 | 1.04 | 0.416 | 0.722
6 | PC-14 | 0.29 | 0.152 | 0.226 | 0.187 | 0.144 | 0.351 | 0.36 | 0.342 | 0.281 | 0.269 | 0.872 | 0.818 | 0.995 | – | 0.68 | 1.02 | 0.968 | 1.02 | – | 0.788
7 | RERF-LC-KJ | 0.896 | 0.639 | 0.701 | 0.704 | 0.689 | 0.916 | 0.864 | 1.08 | 1.01 | 0.887 | 0.867 | 0.818 | 0.93 | 0.852 | 0.632 | 0.915 | 0.835 | 0.95 | 0.859 | 0.636
8 | SK-LU-1 | 0.708 | 0.497 | 0.658 | 0.689 | 0.651 | 0.487 | 0.43 | 0.39 | 0.503 | 0.388 | 0.45 | 0.753 | 0.73 | 0.477 | 0.397 | 1.14 | 0.7 | 0.687 | 0.523 | 0.428
9 | SK-MES-1 | 0.455 | 0.394 | 0.423 | 0.296 | 0.31 | 0.707 | 0.694 | 0.638 | 0.683 | 0.607 | 1 | 0.88 | 0.919 | 0.334 | 0.242 | 1.14 | 0.926 | 0.947 | 0.562 | 0.249
10 | SW 1573 | 0.7 | 0.452 | 0.485 | 0.56 | 0.121 | 0.446 | 0.425 | 0.456 | 0.546 | 0.433 | 0.869 | 0.632 | 0.842 | 0.663 | 0.406 | 0.767 | 0.744 | 0.796 | 0.612 | 0.508

Reference: the supplement of paper PMC10307832
